Source: patent US6395782B1, “Method of increasing longevity and preventing body weight wasting in autoimmune disease by using conjugated linoleic acid” (Wisconsin Alumni Research Foundation, priority 2001, dated 2002)

Key:
NZB/W F1 mice [1] = conditions: dietary CLA fed from weaning onward; cited from earlier work
[2] = tested on: SLE patients and rodent models; test: Comparison of CLA with n-3 fatty acids in SLE patients and rodent models; format: in vivo; conditions: CLA vs n-3 fatty acids
Source text: Effects similar to those observed by the applicants can be observed using n-3 fatty acids in SLE patients and rodent models (Fernandes, G., et al., J. Immunol. 152:5979 (1994)). […] To have similar effects of 0.5% diet CLA, as described below, n-3 fatty acids would have to make up about 10% of the diet.

NZB/W F1 mice [3] = test: CLA diet given after onset of proteinuria in NZB/W F1 mice (SLE model): survival and body weight; format: in vivo; conditions: p<0.05
Source text: Materials. Conjugated linoleic acid (Natural Lipids Inc, Hovdebygda, Norway) contained 90% CLA (CLA-90) with the following C18:2 isomer distribution: 43.5% t10,c12, 41.9% c9,t11 and t9,c11, 1.5% t9,t11 and t10,t12, 0.9% c9,c11, 0.9% c10,c12. Other fatty acids in CLA-90 were 5.6% oleate, 1.4% palmitate, 0.5% linoleate, 0.4% stearate, and 3.4% unidentified compounds. All other chemicals and reagents were purchased from Sigma Chemical Co. (St. Louis, Mo.) unless specified.
Diet. Semi-purified powdered diet (TD94060, 99% basal mix, Harlan-Teklad, Madison, Wis.) was mixed with 0.5% oil (either CLA or corn oil) and 0.5% sucrose by weight, such that the final diet contained either 5.5% corn oil (control group) or 5% corn oil plus 0.5% CLA (CLA group) (Park Y et al., Lipids 32, 853 (1997)). […]
Animals. […] Once proteinuria was detected the mice were assigned either the control diet or 0.5% conjugated linoleic acid for the remainder of their life. […]
Feed Intake and Body Weight. Weekly body weight and survival of the mice were recorded from the beginning of the experiment to the time of death.
Urine Collection and Proteinuria Assay. […] Plates were mildly shaken for 5 min and the color reactions were read at 600 nm with a microtiter plate reader (Autoreader EL310, Bio-tek Instrument). […]
Statistical Analysis. […] Positive proteinuria ratio was analyzed by Fisher's exact test using a SAS computer program version 5.

Conjugated linoleic acid [CLA]
anti-DNA antibody production (NZB/W F1 mice [1]): does not significantly affect | body weight loss vs control mice (NZB/W F1 mice [1]): lost less body weight | onset of proteinuria (NZB/W F1 mice [1]): accelerates the onset of proteinuria | survival from the onset of proteinuria vs control mice (NZB/W F1 mice [1]): lived longer | total lifespan vs control animals (NZB/W F1 mice [1]): did not differ | effectiveness relative to n-3 fatty acids in comparable methods [2]: about 20 times | prolonging of life span (lived longer than control diet) (NZB/W F1 mice [3]; 0.5% CLA in diet from detection of proteinuria (1 mg protein/ml urine) until death, vs 5.5% corn oil control diet, female NZB/W F1 mice): 55% | reduction of body weight wasting (control lost more body weight than CLA diet) (NZB/W F1 mice [3]; 0.5% CLA in diet from detection of proteinuria until death, vs control diet, NZB/W F1 mice): 35%
